Laboratory results reported in paper PMC11714206, “Massively Parallel Screening of Toll/Interleukin‐1 Receptor (TIR)‐Derived Peptides Reveals Multiple Toll‐Like Receptors (TLRs)‐Targeting Immunomodulatory Peptides” (Advanced Science, 2024).
Blank lines part the entries; values can stand above or below the sequence they belong to.

Molecular target: T1, MyD88^TIR (Homo sapiens, UniProt Q99836)
T1 construct: MyD88 (residues 148–296); 6xHis; made in house; host or cells: E. coli BL21 (DE3)
Assay: T‐Surf phage library (P8 and P3) selection against MyD88^TIR, four rounds, NGS read counts
Format: binding
Conditions: for P8_MyD88 Rank (after) / P8_MyD88 Rank (before): P8 library; for Population: 4th round of selection against MyD88 TIR, share of NGS reads; for P3_MyD88 Rank (after) / P3_MyD88 Rank (before): P3 library
Method in brief: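 Read counts come from NGS of phage pools enriched over four selection rounds on the plate‐coated TIR domain (5 µg mL^−1). Each round: 1 h phage binding at room temperature after 0.2% BSA blocking, Tween washes, acid elution, amplification in E. coli TG1 with M13KO7 helper.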

[1] = 4R selection against MyD88, rank after grouping
[2] = 4R selection against MyD88, rank before grouping
[3] = selection against MyD88, rank by count after grouping
[4] = selection against MyD88, rank by count before grouping
[5] = P8_MyD88: rank by NGS read count after grouping
[6] = P8_MyD88: rank by NGS read count before grouping
[7] = P8_MyD88: rank by count after grouping
[8] = P8_MyD88: rank by count before grouping
[9] = P8_MyD88 pool: P8 T-Surf phage library
[10] = selection against MyD88 TIR, rank by count after grouping
[11] = selection against MyD88 TIR, rank by count before grouping
[12] = selection against MyD88, rank after grouping
[13] = selection against MyD88, rank before grouping
[14] = P3_MyD88: rank by count after grouping
[15] = P3_MyD88: rank by count before grouping
[16] = P3_MyD88 pool: P3 T-Surf phage library

T1 sequence (Q99836 148-296): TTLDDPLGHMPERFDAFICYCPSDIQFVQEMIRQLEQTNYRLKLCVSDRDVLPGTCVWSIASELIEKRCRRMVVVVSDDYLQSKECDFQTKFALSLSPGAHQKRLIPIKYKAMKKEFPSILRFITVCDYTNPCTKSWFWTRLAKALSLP

- Rank (after) [5]: 1000
- Rank (before) [6]: 3237
Sequence: LGYHWEYWVYFVGIED

- P8_MyD88 Rank (after) [1]: 640
- P8_MyD88 Rank (before) [2]: 3023
Sequence: DPQLLVCFYERLVSLF

- Rank (after) [7]: 152
- Rank (before) [8]: 164
- Population [9]: 0.00886%
Sequence: DWLPGRTLFENLWASV

- P3_MyD88 Rank (after) [3]: 718
- P3_MyD88 Rank (before) [4]: 3399
Sequence: NELVHVWSSKANIRVC

- P3_MyD88 Rank (after) [3]: 693
- P3_MyD88 Rank (before) [4]: 3400
Sequence: NELVQVWSSKANSLVR

- P8_MyD88 Rank (after) [1]: 605
- P8_MyD88 Rank (before) [2]: 1355
Sequence: WFWQSLRNTIIMDNQA

- Rank (after) [7]: 108
- Rank (before) [8]: 114
- Population [9]: 0.02%
Sequence: QDLGWFYERLISQILK

- P3_MyD88 Rank (after) [3]: 687
- P3_MyD88 Rank (before) [4]: 1651
Sequence: YTALTNRGFHTFRDHH

- P3_MyD88 Rank (after) [12]: 561
- P3_MyD88 Rank (before) [13]: 2317
Sequence: LVAQEISKIKTMLATT

- P3_MyD88 Rank (after) [3]: 725
- P3_MyD88 Rank (before) [4]: 3201
Sequence: SSFREGLCRLLELSKQ

- P8_MyD88 Rank (after) [3]: 759
- P8_MyD88 Rank (before) [4]: 3018
Sequence: DPQELQWIYERLVSLF

- Population [16]: 0.00349%
Sequence: SSFREGLWRLLKLSKK

- P3_MyD88 Rank (after) [10]: 214
- P3_MyD88 Rank (before) [11]: 2961
Sequence: SENYATSAWALEELVL

- P8_MyD88 Rank (after) [12]: 578
- P8_MyD88 Rank (before) [13]: 2557
Sequence: DVLYWALTEAGLRGFR

The remaining lines, values behind:

Sequence: LGYHWVVWEYFVGIED
- P8_MyD88 Rank (after) [1]: 594
- P8_MyD88 Rank (before) [2]: 3231

Sequence: WALVELLHIRHARELF
- P8_MyD88 Rank (after) [3]: 709
- P8_MyD88 Rank (before) [4]: 1405

Sequence: LGYQWIEWEYFVGIED
- P8_MyD88 Rank (after) [10]: 250
- P8_MyD88 Rank (before) [11]: 1186

Sequence: YAFTGHLCRCLVLRGA
- P3_MyD88 Rank (after) [12]: 506
- P3_MyD88 Rank (before) [13]: 1489

Sequence: YTAMTNSGFHTFRGND
- Rank (after) [14]: 429
- Rank (before) [15]: 1711

Sequence: DLQDLDWFYERLVSLL
- P8_MyD88 Rank (after) [10]: 206
- P8_MyD88 Rank (before) [11]: 2595

Sequence: SIATLLYDQLSWLDIH
- P8_MyD88 Rank (after) [10]: 201
- P8_MyD88 Rank (before) [11]: 293

Sequence: SEDTRNNFLYHLYEAL
- Rank (after) [7]: 100
- Rank (before) [8]: 106
- Population [9]: 0.022%

Sequence: LLAHEISKNMKIFATI
- P3_MyD88 Rank (after) [12]: 523
- P3_MyD88 Rank (before) [13]: 2262

Sequence: SSFCEGLWRLLELSKK
- Population [16]: 0.00437%

Sequence: SSWREGLCRLLELRNK
- P3_MyD88 Rank (after) [12]: 501
- P3_MyD88 Rank (before) [13]: 3264

Sequence: WALDELLTILYAKETM
- P8_MyD88 Rank (after) [1]: 608
- P8_MyD88 Rank (before) [2]: 1468

Sequence: KNLLNELVSKTIRTFM
- Rank (after) [14]: 470
- Rank (before) [15]: 3790

Sequence: DFLNWFYERLVSLFL
- P8_MyD88 Rank (after) [1]: 622
- P8_MyD88 Rank (before) [2]: 2352

Sequence: DSQVLDWFYERLVSLL
- Rank (after) [5]: 982
- Rank (before) [6]: 2496

Sequence: DPQDLAWFSERLVSQF
- P8_MyD88 Rank (after) [12]: 551
- P8_MyD88 Rank (before) [13]: 2728

Sequence: DPQDLDWFYERLASLL
- Rank (after) [7]: 135
- Rank (before) [8]: 720

Sequence: WAQDALLKILYAKETM
- P8_MyD88 Rank (after) [1]: 614
- P8_MyD88 Rank (before) [2]: 1562

Sequence: LGYHWIDWEYYVGIEN
- Rank (after) [5]: 992
- Rank (before) [6]: 3275

Sequence: LNVEGWRQALEKAGKL
- Rank (after) [14]: 131
- Rank (before) [15]: 2401

Sequence: DPQDLEWFYERLFSR
- Rank (after) [7]: 450
- Rank (before) [8]: 1113

Sequence: SSFHEGLWRMLELSKK
- P3_MyD88 Rank (after) [3]: 737
- P3_MyD88 Rank (before) [4]: 3250

Sequence: DEAWFLTKLRISLEHL
- P8_MyD88 Rank (after) [12]: 576
- P8_MyD88 Rank (before) [13]: 2581
